Here are results for eleven compounds from patent US20220281886A1, “NATRIURETIC PEPTIDE RECEPTOR A AGONISTS USEFUL FOR THE TREATMENT OF CARDIOMETABOLIC DISEASES, KIDNEY DISEASE AND DIABETES” (Merck Sharp & Dohme Corp., priority 2019, published 2022).

The test addresses T1, hNPRA (Homo sapiens, UniProt P16066).
T1 construct: expressed in transfected cells
T1 sequence (P16066 33-1061): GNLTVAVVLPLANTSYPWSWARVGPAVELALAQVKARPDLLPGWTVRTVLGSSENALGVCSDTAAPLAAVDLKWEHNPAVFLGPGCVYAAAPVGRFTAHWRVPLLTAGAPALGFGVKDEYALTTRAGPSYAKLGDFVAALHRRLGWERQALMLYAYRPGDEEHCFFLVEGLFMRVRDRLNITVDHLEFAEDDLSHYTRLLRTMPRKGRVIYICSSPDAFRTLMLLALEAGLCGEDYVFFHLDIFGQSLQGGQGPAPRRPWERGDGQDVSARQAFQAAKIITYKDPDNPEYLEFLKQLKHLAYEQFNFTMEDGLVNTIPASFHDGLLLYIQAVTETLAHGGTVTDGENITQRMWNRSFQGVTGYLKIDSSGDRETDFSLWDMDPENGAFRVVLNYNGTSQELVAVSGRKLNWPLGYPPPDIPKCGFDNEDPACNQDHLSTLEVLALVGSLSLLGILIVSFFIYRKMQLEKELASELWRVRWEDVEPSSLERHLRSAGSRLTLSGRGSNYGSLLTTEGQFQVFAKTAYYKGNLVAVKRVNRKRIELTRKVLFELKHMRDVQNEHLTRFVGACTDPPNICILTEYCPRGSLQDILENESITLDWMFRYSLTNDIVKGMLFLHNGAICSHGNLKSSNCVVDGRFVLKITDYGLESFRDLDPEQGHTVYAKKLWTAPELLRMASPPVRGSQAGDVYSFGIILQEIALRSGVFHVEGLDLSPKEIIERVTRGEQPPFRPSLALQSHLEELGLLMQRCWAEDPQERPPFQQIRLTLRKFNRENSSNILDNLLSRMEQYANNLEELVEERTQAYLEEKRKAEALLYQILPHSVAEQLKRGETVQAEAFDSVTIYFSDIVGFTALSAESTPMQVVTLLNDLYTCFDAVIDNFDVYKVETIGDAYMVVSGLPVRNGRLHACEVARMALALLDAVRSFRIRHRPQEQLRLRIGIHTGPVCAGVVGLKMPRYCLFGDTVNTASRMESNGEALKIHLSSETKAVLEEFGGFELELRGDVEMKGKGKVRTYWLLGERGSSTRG
Put plainly: NPRA Functional Cell Assay (cGMP HTRF). It is filed as cell-based. The following applies: Human NPRA HEK JumpIn stable cells; cGMP by HTRF after 1 hour at 37° C.; 10-point dose response. A digest of the protocol: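 HEK JumpIn cells stably expressing human, rat or dog NPRA incubated 1 hour at 37° C with compound (10-point titration) in Opti-MEM buffer with 100 uM IBMX and 100 uM RO20. cGMP measured by HTRF against an on-plate calibration curve; EC50 from 4-parameter fit, positive control 10 nM rat-ANP (rat) or 50 nM h-ANP (human, dog).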
A general note: Time-resolved FRET reads energy transfer from a long-lived donor to a nearby acceptor.

Broadly, the EC50 is the concentration at which the effect is half-maximal. Take `CN1CC(NC(=O)c2cccc([C@@H](CCN3CCC[C@H]3CO)NC(=O)c3ccc4nc5c(cc4c3)C[C@@H](C3(C(F)(F)F)CC3)CC5)c2)C1` [Example 22, (S)-N-((R)-3-((S)-2-(hydroxymethyl)pyrrolidin-1-yl)-1-(3-((1-methylazetidin-3-yl)carbamoyl)phenyl)propyl)-7-(1-(trifluoromethyl)cyclopropyl)-5,6,7,8-tetrahydroacridine-2-carboxamide]: the EC50 was found to be 0.278 µM.
Take `CN1CC(NC(=O)c2cccc([C@@H](CCN3CCC[C@H]3CO)NC(=O)c3ccc4nc5c(cc4c3)C[C@@H](C3(C(F)F)CC3)CC5)c2)C1` [Example 23]: the midpoint of the response, the EC50, lay at 0.405 µM.
Take `COC(=O)C1CCN(CC[C@@H](NC(=O)c2cc(F)c3nc4c(cc3c2)C[C@](F)(C(C)C)CC4)c2ccc(-c3cnc(O)c(F)c3)cc2)CC1` [Example 24, methyl 1-((R)-3-((S)-4,7-difluoro-7-isopropyl-5,6,7,8-tetrahydroacridine-2-carboxamido)-3-(4-(5-fluoro-6-hydroxypyridin-3-yl)phenyl)propyl)piperidine-4-carboxylate]: the concentration giving a half-maximal response (EC50) is 0.237 µM.
Consider `CC(C)[C@]1(F)CCc2nc3c(F)cc(C(=O)N[C@H](CCN4CCC(C(=O)O)CC4)c4ccc(-c5cnc(O)c(F)c5)cc4)cc3cc2C1` [Example 25, 1-((R)-3-((S)-4,7-difluoro-7-isopropyl-5,6,7,8-tetrahydroacridine-2-carboxamido)-3-(4-(5-fluoro-6-hydroxypyridin-3-yl)phenyl)propyl)piperidine-4-carboxylic acid], for which the midpoint of the response, the EC50, lay at 0.167 µM. This EC50 and that of the compound before are within 1.5-fold of each other.
In the case of `CC(C)[C@]1(F)CCc2nc3c(F)cc(C(=O)N[C@H](CCN4CCC(O)CC4)c4ccc(NS(=O)(=O)N(C)C)nc4)cc3cc2C1` [Example 26, (S)-N-((R)-1-(6-((N,N-dimethylsulfamoyl)amino)pyridin-3-yl)-3-(4-hydroxypiperidin-1-yl)propyl)-4,7-difluoro-7-isopropyl-5,6,7,8-tetrahydroacridine-2-carboxamide] it was 0.246 µM; in that of `CC(C)[C@]1(F)CCc2nc3c(F)cc(C(=O)N[C@H](CCN4CCC(O)CC4)c4cnc(NS(=O)(=O)N(C)C)c(F)c4)cc3cc2C1` [Example 27, (S)-N-((R)-1-(6-((N,N-dimethylsulfamoyl)amino)-5-fluoropyridin-3-yl)-3-(4-hydroxypiperidin-1-yl)propyl)-4,7-difluoro-7-isopropyl-5,6,7,8-tetrahydroacridine-2-carboxamide], 2.45 µM; in that of `CC(C)[C@]1(F)CCc2nc3c(F)cc(C(=O)N[C@H](CCN4CCC(O)CC4)c4ccc(N5CC(=O)NC5=O)nc4)cc3cc2C1` [Example 28], 0.321 µM.
`CC1C(=O)NC(=O)N1c1ccc([C@@H](CCN2CCC(O)CC2)NC(=O)c2cc(F)c3nc4c(cc3c2)C[C@](F)(C(C)C)CC4)cn1` (stereo partly drawn) [Example 29, (7S)-4,7-difluoro-N-((1R)-3-(4-hydroxypiperidin-1-yl)-1-(6-(5-methyl-2,4-dioxoimidazolidin-1-yl)pyridin-3-yl)propyl)-7-isopropyl-5,6,7,8-tetrahydroacridine-2-carboxamide] displayed an EC50 of 0.275 µM.
`CC(C)[C@]1(F)CCc2nc3c(F)cc(C(=O)N[C@H](CCN4CCC(O)CC4)c4ccc(-c5cn[nH]c5)nc4)cc3cc2C1` [Example 32, (S)-N-((R)-1-(6-(1H-pyrazol-4-yl)pyridin-3-yl)-3-(4-hydroxypiperidin-1-yl)propyl)-4,7-difluoro-7-isopropyl-5,6,7,8-tetrahydroacridine-2-carboxamide] had an EC50 of 0.217 µM. This EC50 and that of the compound before are within 1.5-fold of each other.
In the case of `CC(C)[C@]1(F)CCc2nc3c(F)cc(C(=O)N[C@H](CCN4CCC(O)CC4)c4ccc(N5CC[C@@H](O)[C@H](F)C5)nc4)cc3cc2C1` [Example 33, (S)-4,7-difluoro-N-((R)-1-(6-((3R,4R)-3-fluoro-4-hydroxypiperidin-1-yl)pyridin-3-yl)-3-(4-hydroxypiperidin-1-yl)propyl)-7-isopropyl-5,6,7,8-tetrahydroacridine-2-carboxamide] it was 0.871 µM; in that of `CC(C)[C@]1(F)CCc2nc3c(F)cc(C(=O)N[C@H](CCN4CCC(O)CC4)c4ccc(N5CC6CCC5CO6)nc4)cc3cc2C1` (stereo partly drawn) [Example 34, (7S)-N-((1R)-1-(6-(2-oxa-5-azabicyclo[2.2.2]octan-5-yl)pyridin-3-yl)-3-(4-hydroxypiperidin-1-yl)propyl)-4,7-difluoro-7-isopropyl-5,6,7,8-tetrahydroacridine-2-carboxamide], 2.84 µM.
